Laboratory results taken from ChEMBL document CHEMBL3627608, “Crystal structures of human RIP2 kinase catalytic domain complexed with ATP-competitive inhibitors: Foundations for understanding inhibitor selectivity” (Bioorg Med Chem, 2015).

Experiments:
[1] = biological target: Epithelial discoidin domain-containing receptor 1 (Homo sapiens) (UniProt Q08345); assay: Inhibition of DDR1 (unknown origin) at 10 uM after 120 mins P33 radiolabeled kinase activity assay
[2] = biological target: T1, Dual specificity mitogen-activated protein kinase kinase 7 (Homo sapiens) (UniProt O14733); assay: Inhibition of MKK7 (unknown origin) at 10 uM after 120 mins P33 radiolabeled kinase activity assay
T1 sequence (whole entry): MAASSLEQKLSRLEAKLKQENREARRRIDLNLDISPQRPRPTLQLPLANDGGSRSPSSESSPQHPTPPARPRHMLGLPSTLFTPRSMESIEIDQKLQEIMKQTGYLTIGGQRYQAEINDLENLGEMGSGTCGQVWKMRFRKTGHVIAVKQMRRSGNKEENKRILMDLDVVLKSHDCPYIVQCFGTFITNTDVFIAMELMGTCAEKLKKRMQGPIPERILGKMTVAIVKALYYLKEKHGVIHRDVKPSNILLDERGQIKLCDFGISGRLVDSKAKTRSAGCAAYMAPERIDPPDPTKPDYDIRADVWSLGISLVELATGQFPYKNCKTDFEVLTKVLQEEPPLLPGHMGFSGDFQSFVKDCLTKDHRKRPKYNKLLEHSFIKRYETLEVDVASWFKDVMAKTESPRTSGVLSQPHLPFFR

[3] = biological target: Mitogen-activated protein kinase kinase kinase kinase 4 (Homo sapiens) (UniProt O95819); assay: Inhibition of HGK (unknown origin) at 10 uM after 120 mins P33 radiolabeled kinase activity assay
Sequence of Mitogen-activated protein kinase kinase kinase kinase 4 (Homo sapiens) (O95819 2-1239 limits assumed): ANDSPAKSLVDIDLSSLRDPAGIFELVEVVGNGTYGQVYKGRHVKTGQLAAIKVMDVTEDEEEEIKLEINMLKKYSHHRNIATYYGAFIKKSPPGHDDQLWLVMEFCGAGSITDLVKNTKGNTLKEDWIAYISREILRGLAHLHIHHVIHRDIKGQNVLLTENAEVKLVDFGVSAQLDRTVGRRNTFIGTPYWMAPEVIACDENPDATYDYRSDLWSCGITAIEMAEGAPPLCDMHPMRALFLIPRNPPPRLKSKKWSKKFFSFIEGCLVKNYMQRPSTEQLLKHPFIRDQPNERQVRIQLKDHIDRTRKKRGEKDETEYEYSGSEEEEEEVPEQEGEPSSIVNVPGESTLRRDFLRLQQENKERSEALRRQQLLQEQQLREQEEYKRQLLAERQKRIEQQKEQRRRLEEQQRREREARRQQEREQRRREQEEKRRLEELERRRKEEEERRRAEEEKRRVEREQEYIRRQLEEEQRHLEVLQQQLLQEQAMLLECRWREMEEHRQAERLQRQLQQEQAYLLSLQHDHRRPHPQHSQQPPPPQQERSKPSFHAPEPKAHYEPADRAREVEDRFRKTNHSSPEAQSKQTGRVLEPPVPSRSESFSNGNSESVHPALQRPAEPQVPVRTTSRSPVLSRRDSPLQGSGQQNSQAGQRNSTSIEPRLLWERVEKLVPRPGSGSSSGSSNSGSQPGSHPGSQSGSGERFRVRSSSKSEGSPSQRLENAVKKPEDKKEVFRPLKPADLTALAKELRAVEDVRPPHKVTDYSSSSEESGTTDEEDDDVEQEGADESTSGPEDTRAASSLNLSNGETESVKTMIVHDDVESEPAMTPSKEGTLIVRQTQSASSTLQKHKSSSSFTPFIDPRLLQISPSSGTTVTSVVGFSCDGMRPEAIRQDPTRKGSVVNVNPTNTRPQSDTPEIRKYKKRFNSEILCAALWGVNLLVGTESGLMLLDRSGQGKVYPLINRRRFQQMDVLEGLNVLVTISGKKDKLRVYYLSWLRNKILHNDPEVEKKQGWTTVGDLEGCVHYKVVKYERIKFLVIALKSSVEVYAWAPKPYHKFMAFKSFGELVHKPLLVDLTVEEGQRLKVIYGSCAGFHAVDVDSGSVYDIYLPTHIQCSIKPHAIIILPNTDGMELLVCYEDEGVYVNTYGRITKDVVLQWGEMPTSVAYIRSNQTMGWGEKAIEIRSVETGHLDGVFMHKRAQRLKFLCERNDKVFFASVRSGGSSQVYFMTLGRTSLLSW

[4] = biological target: Casein kinase I isoform alpha (Homo sapiens) (UniProt P48729); assay: Inhibition of CK1alpha1 (unknown origin) at 10 uM after 120 mins P33 radiolabeled kinase activity assay
Sequence of Casein kinase I isoform alpha (Homo sapiens) (P48729 2-337 limits assumed): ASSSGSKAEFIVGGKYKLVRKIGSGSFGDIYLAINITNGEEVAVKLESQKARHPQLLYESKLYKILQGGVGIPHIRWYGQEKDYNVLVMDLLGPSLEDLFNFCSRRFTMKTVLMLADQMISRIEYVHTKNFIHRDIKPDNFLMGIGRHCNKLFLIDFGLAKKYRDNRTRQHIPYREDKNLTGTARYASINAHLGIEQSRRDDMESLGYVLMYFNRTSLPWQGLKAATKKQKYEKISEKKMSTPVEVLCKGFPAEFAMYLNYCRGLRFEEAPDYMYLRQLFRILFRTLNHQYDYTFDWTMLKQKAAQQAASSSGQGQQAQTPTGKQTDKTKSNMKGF

[5] = biological target: Serine/threonine-protein kinase PAK 4 (Homo sapiens) (UniProt O96013); assay: Inhibition of PAK4 (unknown origin) at 10 uM after 120 mins P33 radiolabeled kinase activity assay
Sequence of Serine/threonine-protein kinase PAK 4 (Homo sapiens) (O96013 whole entry, looked up): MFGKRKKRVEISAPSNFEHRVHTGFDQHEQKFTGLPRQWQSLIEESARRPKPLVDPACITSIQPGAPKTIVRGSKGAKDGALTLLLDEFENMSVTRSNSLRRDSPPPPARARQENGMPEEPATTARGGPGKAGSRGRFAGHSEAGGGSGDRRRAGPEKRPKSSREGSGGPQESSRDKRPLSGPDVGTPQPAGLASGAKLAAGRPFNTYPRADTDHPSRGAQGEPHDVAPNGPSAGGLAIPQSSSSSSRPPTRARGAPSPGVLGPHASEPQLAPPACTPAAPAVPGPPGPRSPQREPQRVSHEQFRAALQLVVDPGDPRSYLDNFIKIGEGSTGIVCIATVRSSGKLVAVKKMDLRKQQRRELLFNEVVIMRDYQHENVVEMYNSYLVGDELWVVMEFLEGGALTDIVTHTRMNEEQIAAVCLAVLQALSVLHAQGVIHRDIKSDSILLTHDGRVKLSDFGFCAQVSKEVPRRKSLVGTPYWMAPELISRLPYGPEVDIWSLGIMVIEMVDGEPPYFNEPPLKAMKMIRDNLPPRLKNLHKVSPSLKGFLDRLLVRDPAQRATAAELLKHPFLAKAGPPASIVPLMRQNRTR

[6] = biological target: Death-associated protein kinase 2 (Homo sapiens) (UniProt Q9UIK4); assay: Inhibition of DAPK2 (unknown origin) at 10 uM after 120 mins P33 radiolabeled kinase activity assay
[7] = biological target: Leucine-rich repeat serine/threonine-protein kinase 2 (Homo sapiens) (UniProt Q5S007); assay: Inhibition of LRRK2 (unknown origin) at 10 uM after 120 mins P33 radiolabeled kinase activity assay
[8] = biological target: T2, Serine/threonine-protein kinase Nek9 (Homo sapiens) (UniProt Q8TD19); assay: Inhibition of NEK9 (unknown origin) at 10 uM after 120 mins P33 radiolabeled kinase activity assay
T2 sequence (whole entry): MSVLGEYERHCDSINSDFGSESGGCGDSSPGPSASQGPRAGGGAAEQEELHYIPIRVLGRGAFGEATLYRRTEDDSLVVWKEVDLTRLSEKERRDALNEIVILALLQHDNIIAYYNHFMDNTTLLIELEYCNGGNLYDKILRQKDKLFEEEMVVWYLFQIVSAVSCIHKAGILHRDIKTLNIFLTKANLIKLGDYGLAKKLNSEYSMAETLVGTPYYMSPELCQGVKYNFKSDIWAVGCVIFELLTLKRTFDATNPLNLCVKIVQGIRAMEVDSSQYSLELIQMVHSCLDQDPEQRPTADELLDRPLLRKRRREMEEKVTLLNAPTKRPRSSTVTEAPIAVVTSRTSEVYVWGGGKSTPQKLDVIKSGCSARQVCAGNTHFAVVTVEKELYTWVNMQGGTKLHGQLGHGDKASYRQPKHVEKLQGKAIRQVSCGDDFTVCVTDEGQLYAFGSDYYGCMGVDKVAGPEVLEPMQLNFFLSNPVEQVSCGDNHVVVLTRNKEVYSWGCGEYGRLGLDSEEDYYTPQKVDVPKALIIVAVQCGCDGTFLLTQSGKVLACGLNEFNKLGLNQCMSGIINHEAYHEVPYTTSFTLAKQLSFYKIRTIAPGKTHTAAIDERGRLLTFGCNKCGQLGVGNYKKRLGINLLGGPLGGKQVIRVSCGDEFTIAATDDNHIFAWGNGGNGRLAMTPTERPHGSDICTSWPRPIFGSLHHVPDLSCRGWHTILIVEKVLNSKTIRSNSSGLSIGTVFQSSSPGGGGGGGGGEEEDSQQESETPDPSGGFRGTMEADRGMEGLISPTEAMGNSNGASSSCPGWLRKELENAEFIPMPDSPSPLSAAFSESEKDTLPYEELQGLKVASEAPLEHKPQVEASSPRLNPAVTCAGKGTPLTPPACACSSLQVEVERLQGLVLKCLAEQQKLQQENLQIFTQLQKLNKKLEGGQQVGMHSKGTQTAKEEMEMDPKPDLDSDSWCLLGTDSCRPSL

[9] = biological target: Casein kinase I isoform gamma-3 (Homo sapiens) (UniProt Q9Y6M4); assay: Inhibition of CK1gamma3 (unknown origin) at 10 uM after 120 mins P33 radiolabeled kinase activity assay
Sequence of Casein kinase I isoform gamma-3 (Homo sapiens) (Q9Y6M4 whole entry, looked up, canonical isoform): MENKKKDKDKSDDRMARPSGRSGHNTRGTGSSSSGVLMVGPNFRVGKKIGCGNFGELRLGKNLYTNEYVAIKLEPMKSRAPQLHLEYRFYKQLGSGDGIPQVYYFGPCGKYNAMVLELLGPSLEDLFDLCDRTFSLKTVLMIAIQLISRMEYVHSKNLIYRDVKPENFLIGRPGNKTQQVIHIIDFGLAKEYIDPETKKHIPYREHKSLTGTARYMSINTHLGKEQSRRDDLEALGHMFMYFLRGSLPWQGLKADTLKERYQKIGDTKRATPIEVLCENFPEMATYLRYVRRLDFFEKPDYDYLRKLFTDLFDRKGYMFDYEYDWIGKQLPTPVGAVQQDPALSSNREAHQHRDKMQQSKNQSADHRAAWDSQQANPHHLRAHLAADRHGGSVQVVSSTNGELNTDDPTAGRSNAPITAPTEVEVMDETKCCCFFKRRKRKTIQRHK

[10] = biological target: Aurora kinase B (Homo sapiens) (UniProt Q96GD4); assay: Inhibition of Aurora B (unknown origin) at 10 uM after 120 mins P33 radiolabeled kinase activity assay
Sequence of Aurora kinase B (Homo sapiens) (Q96GD4 whole entry): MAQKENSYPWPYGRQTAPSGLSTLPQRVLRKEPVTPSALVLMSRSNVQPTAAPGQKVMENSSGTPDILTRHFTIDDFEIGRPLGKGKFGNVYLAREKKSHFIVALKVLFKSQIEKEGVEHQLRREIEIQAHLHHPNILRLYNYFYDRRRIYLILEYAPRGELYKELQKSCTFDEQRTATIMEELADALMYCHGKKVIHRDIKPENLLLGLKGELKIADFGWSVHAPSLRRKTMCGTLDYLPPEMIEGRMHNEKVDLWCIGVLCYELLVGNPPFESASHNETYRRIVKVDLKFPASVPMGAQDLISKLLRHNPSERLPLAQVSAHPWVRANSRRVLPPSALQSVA

[11] = biological target: Receptor-type tyrosine-protein kinase FLT3 (Homo sapiens) (UniProt P36888); assay: Inhibition of FLT3 (unknown origin) at 10 uM after 120 mins P33 radiolabeled kinase activity assay
Sequence of Receptor-type tyrosine-protein kinase FLT3 (Homo sapiens) (P36888 whole entry): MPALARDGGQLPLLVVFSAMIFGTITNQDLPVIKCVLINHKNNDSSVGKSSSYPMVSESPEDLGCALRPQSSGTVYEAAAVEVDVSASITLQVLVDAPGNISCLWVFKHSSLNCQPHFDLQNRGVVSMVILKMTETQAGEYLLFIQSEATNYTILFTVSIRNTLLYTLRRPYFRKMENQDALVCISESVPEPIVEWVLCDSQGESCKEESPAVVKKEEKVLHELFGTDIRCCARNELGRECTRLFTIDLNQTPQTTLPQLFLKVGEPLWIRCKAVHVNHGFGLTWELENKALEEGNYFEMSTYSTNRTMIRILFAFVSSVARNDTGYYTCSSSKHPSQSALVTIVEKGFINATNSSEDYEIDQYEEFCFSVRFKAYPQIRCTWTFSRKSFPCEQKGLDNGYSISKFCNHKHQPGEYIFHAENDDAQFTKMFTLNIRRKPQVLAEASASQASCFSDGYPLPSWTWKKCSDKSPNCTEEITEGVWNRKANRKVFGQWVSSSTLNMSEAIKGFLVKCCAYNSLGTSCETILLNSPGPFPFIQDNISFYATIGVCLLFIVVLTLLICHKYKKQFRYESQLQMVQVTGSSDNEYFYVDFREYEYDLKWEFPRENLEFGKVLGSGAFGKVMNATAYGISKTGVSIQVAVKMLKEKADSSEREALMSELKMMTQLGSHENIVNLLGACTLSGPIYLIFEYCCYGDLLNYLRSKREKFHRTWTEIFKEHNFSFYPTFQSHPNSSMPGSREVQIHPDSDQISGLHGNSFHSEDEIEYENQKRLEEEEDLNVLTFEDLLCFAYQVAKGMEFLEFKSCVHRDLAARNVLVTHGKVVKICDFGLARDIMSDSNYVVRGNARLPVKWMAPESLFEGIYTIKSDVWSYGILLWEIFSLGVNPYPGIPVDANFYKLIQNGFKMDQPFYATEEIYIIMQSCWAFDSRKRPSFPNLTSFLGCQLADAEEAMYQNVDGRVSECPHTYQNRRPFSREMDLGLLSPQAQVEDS

[12] = biological target: T3, Serine/threonine-protein kinase haspin (Homo sapiens) (UniProt Q8TF76); assay: Inhibition of Haspin (unknown origin) at 10 uM after 120 mins P33 radiolabeled kinase activity assay
T3 sequence (whole entry): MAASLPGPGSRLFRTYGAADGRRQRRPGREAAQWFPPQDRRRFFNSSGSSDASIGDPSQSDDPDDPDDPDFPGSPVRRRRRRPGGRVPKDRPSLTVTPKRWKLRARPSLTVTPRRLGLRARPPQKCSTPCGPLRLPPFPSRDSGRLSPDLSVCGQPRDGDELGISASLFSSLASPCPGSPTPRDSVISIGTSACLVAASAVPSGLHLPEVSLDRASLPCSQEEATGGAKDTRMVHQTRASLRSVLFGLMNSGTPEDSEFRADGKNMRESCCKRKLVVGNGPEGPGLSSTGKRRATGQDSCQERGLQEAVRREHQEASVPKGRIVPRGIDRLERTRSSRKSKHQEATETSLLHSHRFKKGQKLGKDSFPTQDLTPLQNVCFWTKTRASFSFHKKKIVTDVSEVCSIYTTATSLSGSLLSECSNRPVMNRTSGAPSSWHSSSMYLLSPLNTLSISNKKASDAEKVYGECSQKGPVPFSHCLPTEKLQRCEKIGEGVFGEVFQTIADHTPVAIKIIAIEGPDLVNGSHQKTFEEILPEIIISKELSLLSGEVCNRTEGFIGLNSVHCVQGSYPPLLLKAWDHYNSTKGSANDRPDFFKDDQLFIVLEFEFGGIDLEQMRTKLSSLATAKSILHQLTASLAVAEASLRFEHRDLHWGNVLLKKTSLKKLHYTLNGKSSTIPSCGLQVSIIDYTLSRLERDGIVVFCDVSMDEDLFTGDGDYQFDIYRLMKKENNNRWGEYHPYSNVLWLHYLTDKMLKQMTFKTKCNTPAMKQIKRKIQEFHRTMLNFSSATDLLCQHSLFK

Sequence of Epithelial discoidin domain-containing receptor 1 (Homo sapiens) (Q08345 whole entry, the tested form may be a part): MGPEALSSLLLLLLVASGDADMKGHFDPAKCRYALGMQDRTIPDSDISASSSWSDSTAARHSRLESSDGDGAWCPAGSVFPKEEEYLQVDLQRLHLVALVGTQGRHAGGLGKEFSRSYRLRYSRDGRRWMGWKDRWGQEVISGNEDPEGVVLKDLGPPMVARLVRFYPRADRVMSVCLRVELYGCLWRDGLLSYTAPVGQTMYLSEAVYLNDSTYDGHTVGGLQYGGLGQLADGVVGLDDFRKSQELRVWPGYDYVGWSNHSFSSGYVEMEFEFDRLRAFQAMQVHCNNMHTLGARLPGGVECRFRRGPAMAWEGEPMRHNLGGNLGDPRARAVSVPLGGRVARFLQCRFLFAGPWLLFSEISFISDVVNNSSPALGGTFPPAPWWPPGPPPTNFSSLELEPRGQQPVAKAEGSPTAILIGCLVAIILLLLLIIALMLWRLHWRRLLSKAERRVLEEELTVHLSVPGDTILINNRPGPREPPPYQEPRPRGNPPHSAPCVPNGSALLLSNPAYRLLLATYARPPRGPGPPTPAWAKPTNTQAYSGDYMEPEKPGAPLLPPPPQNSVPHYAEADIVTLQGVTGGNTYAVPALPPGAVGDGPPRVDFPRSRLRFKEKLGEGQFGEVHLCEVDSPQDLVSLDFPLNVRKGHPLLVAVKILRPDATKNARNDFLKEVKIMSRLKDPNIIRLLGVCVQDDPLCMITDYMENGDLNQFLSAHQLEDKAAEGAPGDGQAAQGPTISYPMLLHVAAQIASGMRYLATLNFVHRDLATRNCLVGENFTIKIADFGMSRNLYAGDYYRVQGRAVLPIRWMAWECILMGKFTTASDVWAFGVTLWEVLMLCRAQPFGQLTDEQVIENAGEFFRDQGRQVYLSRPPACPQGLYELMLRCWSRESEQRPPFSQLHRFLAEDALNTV

| inhibition [1] [%] | inhibition [2] [%] | inhibition [3] [%] | inhibition [4] [%] | inhibition [5] [%] | inhibition [7] [%] | inhibition [9] [%] | inhibition [10] [%] | inhibition [11] [%] | inhibition [12] [%] | SMILES | inhibition [6] [%] | inhibition [8] [%] |
| --- | --- | --- | --- | --- | --- | --- | --- | --- | --- | --- | --- | --- |
| 98.6 | 7.17 | 63.3 | 22.6 | 4.24 | 63.4 | 5.39 | 82.1 | 95.7 | 12.1 | CS(=O)(=O)c1cccc(Nc2nccc(-c3sc(N4CCOCC4)nc3-c3cccc(NS(=O)(=O)c4c(F)cccc4F)c3)n2)c1 | 1.67 | 100 |
| 66 | 2 | 57.7 | 46.8 | 5.75 | 17.1 | 0.42 | 6.36 | 27.6 | 11.4 | COCCNC(=O)c1ccc2c(c1)nc(-c1cnc(-c3ccc(Cl)cc3)[nH]1)n2CCOC | 6.92 | -6.23 |
| 98.1 | 22.7 | 99.8 | 19.9 | 5.19 | 81.5 | 3.82 | 49.2 | 98.6 | 12.3 | CC(C)(C)c1cc(NC(=O)Nc2ccc(Oc3ccncc3)cc2)no1 | 3.58 | 20.9 |
